PubChem BioAssay (NCI)
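How tested: cells in 96-well plates exposed to compound for 48 hours at five concentrations. The concentration for 50% growth inhibition is given as GI50. At the TGI there is no net growth.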

Experiments:
Assay in all cases: growth of human tumour cells (NCI), 48 h
NCI-H226 lung = system: NCI-H226 lung
SK-MEL-5 melanoma = system: SK-MEL-5 melanoma
CAKI-1 renal = system: CAKI-1 renal
RXF 393 renal = system: RXF 393 renal
CCRF-CEM leukemia = system: CCRF-CEM leukemia
T-47D breast = system: T-47D breast
DU-145 prostate = system: DU-145 prostate
RPMI-8226 leukemia = system: RPMI-8226 leukemia
786-0 renal = system: 786-0 renal
SR leukemia = system: SR leukemia
UACC-62 melanoma = system: UACC-62 melanoma
MDA-MB-435 = system: MDA-MB-435
NCI/ADR-RES ovarian = system: NCI/ADR-RES ovarian
TK-10 renal = system: TK-10 renal
SW-620 colon = system: SW-620 colon
HCC-2998 colon = system: HCC-2998 colon
SK-MEL-2 melanoma = system: SK-MEL-2 melanoma
HT29 colon = system: HT29 colon
MOLT-4 leukemia = system: MOLT-4 leukemia
SF-268 CNS = system: SF-268 CNS
KM12 colon = system: KM12 colon
ACHN renal = system: ACHN renal
SNB-75 CNS = system: SNB-75 CNS
MDA-MB-231 breast = system: MDA-MB-231 breast
HCT-15 colon = system: HCT-15 colon
MALME-3M melanoma = system: MALME-3M melanoma
BT-549 breast = system: BT-549 breast
NCI-H23 lung = system: NCI-H23 lung
HOP-92 NSCLC = system: HOP-92 NSCLC
HCT-116 colon = system: HCT-116 colon
OVCAR-5 ovarian = system: OVCAR-5 ovarian
LOX IMVI melanoma = system: LOX IMVI melanoma
K-562 leukemia = system: K-562 leukemia
UO-31 renal = system: UO-31 renal
SK-OV-3 ovarian = system: SK-OV-3 ovarian
IGROV1 ovarian = system: IGROV1 ovarian
NCI-H522 lung = system: NCI-H522 lung
SK-MEL-28 melanoma = system: SK-MEL-28 melanoma
A549 NSCLC = system: A549 NSCLC
SNB-19 CNS = system: SNB-19 CNS
SN12C renal = system: SN12C renal
SF-539 CNS = system: SF-539 CNS
MCF7 breast = system: MCF7 breast
OVCAR-8 ovarian = system: OVCAR-8 ovarian
PC-3 prostate = system: PC-3 prostate
COLO 205 colon = system: COLO 205 colon
HOP-62 NSCLC = system: HOP-62 NSCLC
OVCAR-4 ovarian = system: OVCAR-4 ovarian
EKVX NSCLC = system: EKVX NSCLC
OVCAR-3 ovarian = system: OVCAR-3 ovarian
UACC-257 melanoma = system: UACC-257 melanoma
M14 melanoma = system: M14 melanoma
HS 578T breast = system: HS 578T breast
HL-60(TB) leukemia = system: HL-60(TB) leukemia
NCI-H460 lung = system: NCI-H460 lung
SF-295 CNS = system: SF-295 CNS
A498 renal = system: A498 renal
U251 CNS = system: U251 CNS

C#CCN(C)CCCOc1ccc(NCc2ccc(/C=C/C(=O)NO)cc2)cc1Cl
GI50 (NCI-H226 lung): 1490 nM
TGI (NCI-H226 lung): 4170 nM
GI50 (SK-MEL-5 melanoma): 373 nM
TGI (SK-MEL-5 melanoma): 1340 nM
GI50 (CAKI-1 renal): 544 nM
TGI (CAKI-1 renal): 2210 nM
GI50 (RXF 393 renal): 249 nM
TGI (RXF 393 renal): 799 nM
GI50 (CCRF-CEM leukemia): 264 nM
TGI (CCRF-CEM leukemia): > 100000 nM
GI50 (T-47D breast): 338 nM
TGI (T-47D breast): > 31000 nM
GI50 (DU-145 prostate): 412 nM
TGI (DU-145 prostate): 5280 nM
GI50 (RPMI-8226 leukemia): 316 nM
TGI (RPMI-8226 leukemia): 2820 nM
GI50 (786-0 renal): 1130 nM
TGI (786-0 renal): 2750 nM
GI50 (SR leukemia): 360 nM
TGI (SR leukemia): > 100000 nM
GI50 (UACC-62 melanoma): 367 nM
TGI (UACC-62 melanoma): 1900 nM
GI50 (MDA-MB-435): 330 nM
TGI (MDA-MB-435): 1280 nM
GI50 (NCI/ADR-RES ovarian): 295 nM
TGI (NCI/ADR-RES ovarian): 5350 nM
GI50 (TK-10 renal): 387 nM
TGI (TK-10 renal): 3290 nM
GI50 (SW-620 colon): 235 nM
TGI (SW-620 colon): 856 nM
GI50 (HCC-2998 colon): 382 nM
TGI (HCC-2998 colon): 1910 nM
GI50 (SK-MEL-2 melanoma): 2050 nM
TGI (SK-MEL-2 melanoma): 6610 nM
GI50 (HT29 colon): 345 nM
TGI (HT29 colon): 4770 nM
GI50 (MOLT-4 leukemia): 330 nM
TGI (MOLT-4 leukemia): 17100 nM
GI50 (SF-268 CNS): 1360 nM
TGI (SF-268 CNS): 4650 nM
GI50 (KM12 colon): 1020 nM
TGI (KM12 colon): 6800 nM
GI50 (ACHN renal): 379 nM
TGI (ACHN renal): 1690 nM
GI50 (SNB-75 CNS): 474 nM
TGI (SNB-75 CNS): 2920 nM
GI50 (MDA-MB-231 breast): 502 nM
TGI (MDA-MB-231 breast): 4500 nM
GI50 (HCT-15 colon): 512 nM
TGI (HCT-15 colon): 4600 nM
GI50 (MALME-3M melanoma): 242 nM
TGI (MALME-3M melanoma): 1590 nM
GI50 (BT-549 breast): 1370 nM
TGI (BT-549 breast): 6090 nM
GI50 (NCI-H23 lung): 814 nM
TGI (NCI-H23 lung): 2660 nM
GI50 (HOP-92 NSCLC): 340 nM
TGI (HOP-92 NSCLC): 1410 nM
GI50 (HCT-116 colon): 274 nM
TGI (HCT-116 colon): 1700 nM
GI50 (OVCAR-5 ovarian): 330 nM
TGI (OVCAR-5 ovarian): 2670 nM
GI50 (LOX IMVI melanoma): 475 nM
TGI (LOX IMVI melanoma): 1360 nM
GI50 (K-562 leukemia): 297 nM
TGI (K-562 leukemia): > 100000 nM
GI50 (UO-31 renal): 299 nM
TGI (UO-31 renal): 1550 nM
GI50 (SK-OV-3 ovarian): 645 nM
TGI (SK-OV-3 ovarian): 2990 nM
GI50 (IGROV1 ovarian): 361 nM
TGI (IGROV1 ovarian): 1570 nM
GI50 (NCI-H522 lung): 407 nM
TGI (NCI-H522 lung): 2580 nM
GI50 (SK-MEL-28 melanoma): 485 nM
TGI (SK-MEL-28 melanoma): 1920 nM
GI50 (A549 NSCLC): 528 nM
TGI (A549 NSCLC): 2540 nM
GI50 (SNB-19 CNS): 1030 nM
TGI (SNB-19 CNS): 4060 nM
GI50 (SN12C renal): 1050 nM
TGI (SN12C renal): 7340 nM
GI50 (SF-539 CNS): 717 nM
TGI (SF-539 CNS): 2900 nM
GI50 (MCF7 breast): 421 nM
TGI (MCF7 breast): 11800 nM
GI50 (OVCAR-8 ovarian): 369 nM
TGI (OVCAR-8 ovarian): > 48300 nM
GI50 (PC-3 prostate): 509 nM
TGI (PC-3 prostate): 6850 nM
GI50 (COLO 205 colon): 374 nM
TGI (COLO 205 colon): 1920 nM
GI50 (HOP-62 NSCLC): 601 nM
TGI (HOP-62 NSCLC): 3240 nM
GI50 (OVCAR-4 ovarian): 1400 nM
TGI (OVCAR-4 ovarian): 19400 nM
GI50 (EKVX NSCLC): 954 nM
TGI (EKVX NSCLC): 6800 nM
GI50 (OVCAR-3 ovarian): 478 nM
TGI (OVCAR-3 ovarian): 2490 nM
GI50 (UACC-257 melanoma): 419 nM
TGI (UACC-257 melanoma): 18200 nM
GI50 (M14 melanoma): 465 nM
TGI (M14 melanoma): 2100 nM
GI50 (HS 578T breast): 582 nM
TGI (HS 578T breast): 6220 nM
GI50 (HL-60(TB) leukemia): 331 nM
TGI (HL-60(TB) leukemia): 17300 nM
GI50 (NCI-H460 lung): 430 nM
TGI (NCI-H460 lung): 3210 nM
GI50 (SF-295 CNS): 634 nM
TGI (SF-295 CNS): 2030 nM
GI50 (A498 renal): 417 nM
TGI (A498 renal): 1730 nM
GI50 (U251 CNS): 502 nM
TGI (U251 CNS): 2420 nM
